Columns and labels:
[1] = target: T1, PKC-β2 (Homo sapiens, UniProt P05771); assay: PKC-β2 kinase selectivity assay; format: biochemical; details: Table 4 kinase selectivity; read-out: IC50, Assay 7 PKC-β2
T1 construct: purchased BIOMOL SE-143; host or cells: insect cells
Method: (§1) Assays to test compound inhibition of other kinases were preformed using methods that measure the amount of phosphorylation of a biotinylated peptide substrate. Biotinylated peptide substrates were selected from the literature as appropriate for the enzyme being evaluated. […] Assay conditions vary slightly for each protein kinase, for example, insulin receptor kinase requires 10 mM MnCl2 for activity and Calmodulin-dependent protein kinase requires calmodulin and 2 mM CaCl2. The reaction mixture was dispensed into the wells of a streptavidin coated Flashplate and 1 μl drug stock in 100% DMSO was added to a 100 μl reaction volume resulting in a final concentration of 1% DMSO in the reaction. Enzyme was diluted in 50 mM Tris-HCl pH=8.0, 0.1% BSA and added to each well. The reaction was incubated for one hour at 30° C. in the presence of compound. After one hour the reaction mix was aspirated from the plate and the plate was washed with PBS containing 100 mM EDTA. The plate was read on a scintillation counter to determine ^33P-γ-ATP incorporated into the immobilized peptide. Test compounds were assayed in duplicate at 8 concentrations [100 tM, 10 μM, 1 μM, 100 nM, 10 nM, 1 nM, 100 μM, 10 μM]. A maximum and minimum signal for the assay was determined on each plate. The IC50 was calculated from the dose response curve of the percent inhibition of the maximum signal in the assay according to the formula [max signal−background/test compound signal−background (100)=% inhibition] by graphing the percent inhibition against the log concentration of test compound. Known inhibitor compounds appropriate for the kinase being assayed were also included on each plate.
(§2) VEGF-R (vascular endothelial growth factor receptor-2) is a fusion protein containing a polyhistidine tag at the N-terminus followed by amino acids 786-1343 of the rat VEGF-R2 kinase domain (GenBank Accession #U93306). CDK1 (cyclin dependent kinase 1) is isolated from insect cells expressing both the human CDK1 catalytic subunit and its positive regulatory subunit cyclin B (New England Biolabs, Beverly, Mass., Cat. #6020). CDK4 (cyclin dependent kinase 4) contains amino acids 769 to 921 of the mouse […] protein found in the GST-retinoblastoma protein construct (Santa Cruz Biotechnology, Santa Cruz, Calif.; Cat. #SC-4112). Insulin Receptor Kinase consists of residues 941-1313 of the cytoplasmic domain of the beta-subunit of the human insulin receptor (BIOMOL, Plymouth Meeting, Pa., Cat. #SE-195). Protein Kinase A is the catalytic subunit of cAMP dependent protein kinase-A purified from bovine heart (Upstate Biotech, Lake Placid, N.Y., Cat#14-114). PKC (protein kinase-C) is the gamma or beta isoform of the human protein produced in insect cells (BIOMOL, Plymouth Meeting, Pa., Cat. #SE-143). Casein Kinase 1 is a truncation at amino acid 318 of the C-terminal portion of the rat CK1 delta isoform produced in E.coli (New England Biolabs, Beverly, Mass., Cat. #6030). Casein Kinase 2 includes the alpha and beta subunits of the human CK2 protein produced in E.coli (New England Biolabs, Beverly, Mass., Cat. #6010). Calmodulin Kinase (calmodulin-dependent protein kinase 2) is a truncated version of the alpha subunit of the rat protein produced in insect cells (New England Biolabs, Beverly, Mass., Cat. #6060). Glycogen Synthase Kinase-3 is the beta isoform of the rabbit enzyme produced in E. coli (New England Biolabs, Beverly, Mass., Cat. #6040). MAP Kinase is the rat ERK-2 isoform containing a polyhistidine tag at the N-terminus produced in E. coli. and activated by phosphorylation with MEK1 prior to purification (BIOMOL, Plymouth Meeting, Pa., Cat. #SE-137). EGFR (epidermal growth factor receptor) is purified from human A431 cell membranes (Sigma, St. Louis, Mo., Cat.# E3641). PDGF-R (platelet derived growth factor receptor) is a fusion protein containing a polyhistidine tag at the N-terminus followed by nucleotides 1874-3507 of the human PDGF-R beta subunit kinase domain (Accession #M21616). […]

[2] = target: T2, PDGF-R (platelet derived growth factor receptor) (Homo sapiens, UniProt P09619); assay: PDGF-R kinase selectivity assay; format: biochemical; details: Table 4 kinase selectivity; read-out: IC50, Assay 14 PDGF-R
T2 construct: polyhistidine (N)
T2 sequence (P09619 554-1106 limits assumed): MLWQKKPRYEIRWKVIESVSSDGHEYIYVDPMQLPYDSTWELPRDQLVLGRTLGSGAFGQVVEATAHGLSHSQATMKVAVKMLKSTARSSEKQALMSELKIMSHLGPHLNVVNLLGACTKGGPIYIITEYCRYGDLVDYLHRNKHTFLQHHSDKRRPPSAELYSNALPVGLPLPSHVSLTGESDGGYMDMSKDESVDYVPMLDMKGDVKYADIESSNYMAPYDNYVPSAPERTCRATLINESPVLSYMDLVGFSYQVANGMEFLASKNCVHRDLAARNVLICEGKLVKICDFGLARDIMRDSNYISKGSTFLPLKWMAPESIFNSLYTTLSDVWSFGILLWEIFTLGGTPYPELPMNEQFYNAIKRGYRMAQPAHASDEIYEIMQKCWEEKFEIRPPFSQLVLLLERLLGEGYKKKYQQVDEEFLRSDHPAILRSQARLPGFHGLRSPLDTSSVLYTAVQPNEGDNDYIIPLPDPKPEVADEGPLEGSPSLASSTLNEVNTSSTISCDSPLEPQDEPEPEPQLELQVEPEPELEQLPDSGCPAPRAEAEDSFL
Method: as §1, §2

T1 sequence (P05771 1-673 isoform P05771-2): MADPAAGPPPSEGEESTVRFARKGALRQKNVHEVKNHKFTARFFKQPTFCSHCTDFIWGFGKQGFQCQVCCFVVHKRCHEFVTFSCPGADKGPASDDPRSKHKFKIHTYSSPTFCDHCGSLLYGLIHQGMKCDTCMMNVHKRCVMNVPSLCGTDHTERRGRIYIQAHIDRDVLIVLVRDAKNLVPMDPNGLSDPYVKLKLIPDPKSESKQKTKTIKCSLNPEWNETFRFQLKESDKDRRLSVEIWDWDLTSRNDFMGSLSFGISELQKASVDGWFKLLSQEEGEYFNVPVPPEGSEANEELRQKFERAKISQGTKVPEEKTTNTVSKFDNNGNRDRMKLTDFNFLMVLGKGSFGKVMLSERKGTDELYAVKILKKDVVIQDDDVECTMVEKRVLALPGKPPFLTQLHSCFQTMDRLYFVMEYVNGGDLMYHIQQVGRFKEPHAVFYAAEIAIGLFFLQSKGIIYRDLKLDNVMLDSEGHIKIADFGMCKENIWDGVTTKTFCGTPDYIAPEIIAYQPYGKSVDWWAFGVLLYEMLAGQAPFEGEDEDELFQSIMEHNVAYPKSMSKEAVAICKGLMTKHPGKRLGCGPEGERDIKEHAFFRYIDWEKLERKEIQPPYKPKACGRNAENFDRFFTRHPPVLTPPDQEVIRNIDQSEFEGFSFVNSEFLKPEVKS

Row | IC50 [1] | IC50 [2] | Compound
1 |  | 725 nM | Clc1cccc(Nc2cncc(-c3cncc(NCCCn4cncn4)c3)n2)c1 [Cmd 76]
2 | > 100000 nM | 29200 nM | CN(C)CCNc1cncc(-c2cncc(Nc3cccc(Cl)c3)n2)c1 [Cmd 33, N′-[5-[6-[(3-chlorophenyl)amino]pyrazinyl]-3-pyridinyl]-N^2,N^2-dimethyl-1,2-ethanediamine]
3 | > 100000 nM | 2800 nM | OCCCCNc1cncc(-c2cncc(Nc3cccc(Cl)c3)n2)c1 [Cmd 32]
4 |  | 1000 nM | Clc1cccc(Nc2cncc(-c3cncc(NCCCc4ccncc4)c3)n2)c1 [Cmd 71]
5 |  | 876 nM | Clc1cccc(Nc2cncc(-c3cncc(NCCCc4cccnc4)c3)n2)c1 [Cmd 72]
6 | 1750 nM | 175 nM | Clc1cccc(Nc2cncc(-c3cncc(NCCCN4CCCCC4)c3)n2)c1 [Cmd 73]
7 | > 100000 nM |  | OCCCNc1cncc(-c2cncc(Nc3cccc(Cl)c3)n2)c1 [Cmd 4]

Row | Compound | IC50 [1] | IC50 [2]
8 | O=C(NCCCO)c1cncc(-c2cncc(Nc3cccc(Cl)c3)n2)c1 [Cmd 39] | > 100000 nM | 2800 nM
9 | CN(C)CCCNc1cncc(-c2cncc(Nc3cccc(Cl)c3)n2)c1 [Cmd 35] | > 100000 nM | 2500 nM

— patent US6710048B2, “Pyrazine derivatives as modulators of tyrosine kinases” (Ortho-McNeil Pharmaceutical, Inc., priority 2000, dated 2004)
